Where “and” joins values, the source holds several entries; their conditions need not be identical. Equal entries are not always repeated.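 Values below derive from 48-hour exposures of cells grown in 96-well plates, with endpoints linearly interpolated between the two concentrations bracketing the appropriate inhibition level. Abbreviation: GI50, concentration required for 50% inhibition of growth. TGI: total growth inhibition.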
Legend:
Assay in all cases: inhibition of tumour cell growth, NCI panel, 48 h
CAKI-1 renal = test system: CAKI-1 renal
HCT-116 colon = test system: HCT-116 colon
HOP-92 NSCLC = test system: HOP-92 NSCLC
HS 578T breast = test system: HS 578T breast
IGROV1 ovarian = test system: IGROV1 ovarian
KM12 colon = test system: KM12 colon
MCF7 breast = test system: MCF7 breast
NCI-H460 lung = test system: NCI-H460 lung
SK-MEL-2 melanoma = test system: SK-MEL-2 melanoma
SW-620 colon = test system: SW-620 colon

Structure (SMILES)	TGI (CAKI-1 renal)	TGI (HCT-116 colon)	TGI (HOP-92 NSCLC)	TGI (HS 578T breast) [µM]	TGI (IGROV1 ovarian) [µM]	TGI (KM12 colon)	TGI (MCF7 breast) [µM]	TGI (NCI-H460 lung)	TGI (SK-MEL-2 melanoma)	TGI (SW-620 colon)	GI50 (CAKI-1 renal) [µM]	GI50 (HCT-116 colon) [µM]	GI50 (HOP-92 NSCLC) [µM]	GI50 (HS 578T breast) [µM]	GI50 (IGROV1 ovarian) [µM]	GI50 (KM12 colon)	GI50 (MCF7 breast) [µM]	GI50 (NCI-H460 lung) [µM]	GI50 (SK-MEL-2 melanoma) [µM]	GI50 (SW-620 colon) [µM]
COP(=O)(O)/C=C/C(NC(=O)C(Cl)(Cl)Cl)c1ccccc1 (stereo unspecified)	> 100 µM	> 100 µM	> 100 µM	> 100	> 100	> 100 µM	> 100	> 100 µM	> 100 µM	> 100 µM	–	–	–	–	–	–	–	–	–	–
c1ccc2c(c1)[nH]c1nc3cc(-c4ccc5nc6c(nc5c4)[nH]c4ccccc46)ccc3nc12	> 100 µM	> 100 µM	> 21.5 µM	> 100	> 100	> 100 µM	> 100	> 100 µM	> 100 µM	> 100 µM	–	–	–	–	–	–	–	–	–	–
COc1cc2c(cc1OC)C1c3ccccc3CCN1CC2 (stereo unspecified)	> 100 µM	> 100 µM	> 100 µM	> 100	> 100	> 100 µM	> 100	> 100 µM	> 100 µM	> 100 µM	–	–	–	–	–	–	–	–	–	–
COc1ccc2c(c1)O/C(=C\c1cccc(OCC(=O)Nc3nc4c(s3)CCCC4)c1)C2=O	> 100 µM	> 100 µM	18.5 µM	> 100	2.17	> 100 µM	> 100	> 100 µM	> 30.6 µM	> 100 µM	4.66	> 43.8	3.68	35.1	0.692	10.4 µM	12.8	> 100	12.5	> 100
Cc1ccc(S(=O)(=O)N2CCSCCSCCSCCSCC2)cc1	66.4 µM	> 100 µM	23.4 µM	> 53.1	> 100	> 100 µM	> 100	> 100 µM	> 53.6 µM	> 100 µM	–	–	–	–	–	–	–	–	–	–
O=C(O)C1CC(c2ccc(F)cc2)=Nc2ccc(F)cc2S1 (stereo unspecified)	> 100 µM	> 100 µM	> 100 µM	> 100	> 100	> 100 µM	> 100	> 100 µM	> 100 µM	> 100 µM	–	–	–	–	–	–	–	–	–	–
O=C1C(c2c(O)[nH]c3ccc(S(=O)(=O)O)cc23)=Nc2ccccc21	> 100 µM	> 100 µM	> 100 µM	> 100	> 100	> 100 µM	> 100	> 100 µM	> 100 µM	> 100 µM	–	–	–	–	–	–	–	–	–	–
CC1(C)C(c2ccccc2)=[N+]([O-])C(C)(C)N1O	> 10 µM	> 10 µM	> 10 µM	> 10	> 10	> 10 µM	> 10	> 10 µM	> 10 µM	> 10 µM	–	–	–	–	–	–	–	–	–	–
CC(=O)OC(C)c1cc2c(s1)C(=O)c1sccc1C2=O (stereo unspecified)	8.23 µM	2.48 µM	16.7 µM	7.36	4.19	3.36 µM	3.9	2.36 µM	2.41 µM	> 100 µM	–	–	–	–	–	–	–	–	–	–
CCC1=CCC23C(=O)C=CC(=O)C2(C1)C(=O)c1cccc(OC)c1C3=O (stereo unspecified)	26.1 µM	30.4 µM	29 µM	57.3	26.9	43.6 µM	32.8	62.5 µM	> 100 µM	34 µM	–	–	–	–	–	–	–	–	–	–
CN(C)NC(=S)Nc1ccccc1Br	> 100 µM	> 100 µM	> 100 µM	> 100	> 100	> 100 µM	> 100	> 100 µM	> 100 µM	> 100 µM	–	–	–	–	–	–	–	–	–	–
CC(C)=C[C@@H]1C[C@H](n2cc(C)c(=O)[nH]c2=O)ON1CCO	> 100 µM	> 100 µM	> 100 µM	> 100	> 100	> 100 µM	> 100	> 100 µM	> 100 µM	> 100 µM	–	–	–	–	–	–	–	–	–	–
C=C1C(=O)OC2/C=C(\CO)C(OC(C)=O)CC(O)/C(C)=C/C(OC(=O)C(C)CC)C12 (stereo unspecified)	73.3 µM and 50.5 µM	27.6 µM and 42.5 µM	35 µM and 63.2 µM	> 100	> 100	32.5 µM and > 100 µM	25.8	63.6 µM and > 100 µM	32.3 µM and 33.1 µM	24.4 µM and 78 µM	–	–	–	–	–	17.5 µM and 35.2 µM	–	–	–	–
C=C(Cl)/C(=C\Cl)CCC(Br)C(C)C (stereo unspecified)	> 100 µM	> 100 µM	> 100 µM	> 100	> 100	> 100 µM	> 100	> 100 µM	> 100 µM	37.9 µM	–	–	–	–	–	–	–	–	–	–
Cc1cc(-c2nc3c(O)cccc3s2)ccc1N	56.1 µM	49 µM	58.9 µM	40.8	53.8	65 µM	32.6	> 100 µM	52.9 µM	> 100 µM	–	–	–	–	–	–	–	–	–	–
O=C1/C(=C/c2ccccc2S)N=C(c2ccccc2)N1c1nc2ccc(Sc3ccccc3)cc2[nH]1	> 100 µM	> 100 µM	> 100 µM	72.6	> 100	> 100 µM	84.5	57 µM	36.2 µM	> 100 µM	–	–	–	–	–	–	–	–	–	–
O=c1cc(/C=C/c2ccc(O)c(O)c2)oc(/C=C/c2ccc(O)c(O)c2)c1	11.4 µM	15.5 µM	8.78 µM	65.9	16.6	16 µM	30.8	21.2 µM	9.97 µM	> 26.8 µM	–	–	–	–	–	–	–	–	–	–

Structure (SMILES)	TGI (CAKI-1 renal)	TGI (HCT-116 colon)	TGI (HOP-92 NSCLC)	TGI (HS 578T breast) [µM]	TGI (IGROV1 ovarian) [µM]	TGI (KM12 colon)	TGI (MCF7 breast) [µM]	TGI (NCI-H460 lung)	TGI (SK-MEL-2 melanoma)	TGI (SW-620 colon)	GI50 (CAKI-1 renal) [µM]	GI50 (HCT-116 colon) [µM]	GI50 (HOP-92 NSCLC) [µM]	GI50 (HS 578T breast) [µM]	GI50 (IGROV1 ovarian) [µM]	GI50 (KM12 colon)	GI50 (MCF7 breast) [µM]	GI50 (NCI-H460 lung) [µM]	GI50 (SK-MEL-2 melanoma) [µM]	GI50 (SW-620 colon) [µM]
Cc1ccc(S(=O)(=O)Oc2cc(N)c3c(n2)CCC3)cc1	> 100 µM	> 100 µM	> 100 µM	> 100	> 100	> 100 µM	> 100	> 100 µM	> 100 µM	> 100 µM	–	–	–	–	–	–	–	–	–	–
C=C1[C@@H](O)C[C@@]23CC[C@@H]4[C@@]5(C)CC[C@@H](OC(C)=O)C(C)(C)[C@@H]5C[C@@H](OC5OC(COC(C)=O)C(O)C(O)C5O)[C@@]4(C)C2=CC[C@H]3[C@H]1C (stereo partly specified)	26.7 µM	10.7 µM	20.5 µM	22.4	15	8.16 µM	7.77	17.2 µM	7.39 µM	21.7 µM	–	–	–	–	–	–	–	–	–	–
Cc1cc(C)c2c(=O)n(CN3CC4Nc5ccccc5C4C3)sc2n1 (stereo unspecified)	57.6 µM	43.7 µM	> 100 µM	> 100	> 100	> 100 µM	> 100	46.2 µM	54.2 µM	63.7 µM	–	–	–	–	–	–	–	–	–	–
O=C(CN1CCCCC1)CC(O)(C(F)(F)F)C(F)(F)F	> 100 µM	> 100 µM	> 100 µM	> 100	> 100	> 100 µM	> 100	> 100 µM	> 100 µM	> 100 µM	–	–	–	–	–	–	–	–	–	–
CC1(C)O[C@@H]2COC(=O)[C@@H]2O1	> 100 µM	> 100 µM	> 100 µM	> 100	> 100	> 100 µM	> 100	> 100 µM	> 100 µM	> 100 µM	–	–	–	–	–	–	–	–	–	–
CC(C)(C)N=c1n(C(C)(C)C)oc(=O)n1C(C)(C)C	> 100 µM	> 100 µM	> 100 µM	> 100	> 100	> 100 µM	> 100	> 100 µM	> 100 µM	> 100 µM	–	–	–	–	–	–	–	–	–	–
C1CCSCCCCSCCCCSCCCCSC1	> 100 µM	> 100 µM	> 100 µM	> 100	> 100	> 100 µM	> 100	> 100 µM	> 100 µM	> 100 µM	–	–	–	–	–	–	–	–	–	–
O=C1c2ccccc2CN1c1ccc(O)cc1	> 100 µM	> 100 µM	> 100 µM	> 100	> 100	> 100 µM	> 100	> 100 µM	> 100 µM	> 100 µM	–	–	–	–	–	–	–	–	–	–
O=C1NCCCc2nonc21	> 100 µM	> 100 µM	> 100 µM	> 100	> 100	> 100 µM	> 100	> 100 µM	> 100 µM	> 100 µM	–	–	–	–	–	–	–	–	–	–
NC(CSCc1ccccc1)C(=O)O (stereo unspecified)	> 100 µM	> 100 µM	> 100 µM	> 100	> 100	> 100 µM	> 100	> 100 µM	> 100 µM	> 100 µM	–	–	–	–	–	–	–	–	–	–
CCOC1CC(=O)c2c(Br)sc(Br)c21 (stereo unspecified)	31 µM	38.4 µM	35.3 µM	90.6	31	37.2 µM	40.5	43.1 µM	37.2 µM	47.1 µM	–	–	–	–	–	–	–	–	–	–
C[n+]1c(-c2ccccc2)cc2/c(=C\c3ccc([N+](=O)[O-])cc3)c3ccccc3n21	> 100 µM	14 µM	> 41.6 µM	4.04	9.53	17.8 µM	> 94.1	> 100 µM	10.9 µM	29 µM	–	–	–	–	–	–	–	–	–	–
CCOC(=O)c1[nH]cc(C)c1-c1ccn(-c2ccccc2)c1	> 100 µM	> 100 µM	82.8 µM	> 100	55.9	> 100 µM	> 100	> 100 µM	> 100 µM	> 100 µM	–	–	–	–	–	–	–	–	–	–
CC(CC(C#N)(c1ccccc1)c1ccccc1)N1CCCCC1 (stereo unspecified)	> 100 µM	57.7 µM	> 100 µM	79.9	> 100	49.2 µM	74.7	31.7 µM	46.4 µM	49.5 µM	–	–	–	–	–	–	–	–	–	–
CC(=O)OC[C@]1(C(=O)C(O)c2ccoc2)[C@H](C)CC[C@@]23COC(=O)C2=CCC[C@@H]31 (stereo partly specified)	> 10 µM	> 10 µM	> 10 µM	> 10	> 10	> 10 µM	> 10	> 10 µM	> 10 µM	> 10 µM	–	–	–	–	–	–	–	–	–	–
Cc1ccccc1OC(C)C(=O)NN1C(=O)CC(=O)N(c2ccc(Cl)cc2)C1=S (stereo unspecified)	> 100 µM	53 µM	56.1 µM	> 100	> 100	> 100 µM	> 100	> 100 µM	> 100 µM	> 100 µM	–	–	–	–	–	–	–	–	–	–

Reference: PubChem BioAssay (NCI)
